Results published in PMC7920804 (Bioorganic & Medicinal Chemistry Letters, 2021).

Experiments:
[1] = tested on: SARS-CoV-2
[2] = tested on: SARS-CoV-2; assay: microbe, parasite or virus in culture; conditions: Severe acute respiratory syndrome coronavirus 2, Vero, read-out: SARS-CoV-2 IC50
[3] = biological target: T1, CYP1A2 (Homo sapiens, UniProt P05177); assay: CYP inhibition assay, 1A2; assay type: in vitro ADME
T1 sequence (P05177 1-516): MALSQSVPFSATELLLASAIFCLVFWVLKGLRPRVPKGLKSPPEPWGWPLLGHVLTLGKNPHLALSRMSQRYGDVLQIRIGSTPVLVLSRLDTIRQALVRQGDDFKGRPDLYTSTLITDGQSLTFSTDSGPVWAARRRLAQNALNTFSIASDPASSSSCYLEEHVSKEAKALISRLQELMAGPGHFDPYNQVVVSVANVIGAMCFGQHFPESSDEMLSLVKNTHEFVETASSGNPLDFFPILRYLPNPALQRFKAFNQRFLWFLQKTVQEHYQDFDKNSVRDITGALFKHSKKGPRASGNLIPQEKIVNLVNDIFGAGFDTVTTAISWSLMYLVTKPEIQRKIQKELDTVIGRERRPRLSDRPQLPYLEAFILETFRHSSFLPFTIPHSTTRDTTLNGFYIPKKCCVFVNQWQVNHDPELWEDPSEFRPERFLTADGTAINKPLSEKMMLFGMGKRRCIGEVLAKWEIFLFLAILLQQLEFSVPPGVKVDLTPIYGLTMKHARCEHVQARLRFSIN

[4] = biological target: CYP3A4 (Homo sapiens, UniProt P08684); assay: CYP inhibition assay, 3A4; assay type: in vitro ADME
Chain of CYP3A4 (P08684 whole entry): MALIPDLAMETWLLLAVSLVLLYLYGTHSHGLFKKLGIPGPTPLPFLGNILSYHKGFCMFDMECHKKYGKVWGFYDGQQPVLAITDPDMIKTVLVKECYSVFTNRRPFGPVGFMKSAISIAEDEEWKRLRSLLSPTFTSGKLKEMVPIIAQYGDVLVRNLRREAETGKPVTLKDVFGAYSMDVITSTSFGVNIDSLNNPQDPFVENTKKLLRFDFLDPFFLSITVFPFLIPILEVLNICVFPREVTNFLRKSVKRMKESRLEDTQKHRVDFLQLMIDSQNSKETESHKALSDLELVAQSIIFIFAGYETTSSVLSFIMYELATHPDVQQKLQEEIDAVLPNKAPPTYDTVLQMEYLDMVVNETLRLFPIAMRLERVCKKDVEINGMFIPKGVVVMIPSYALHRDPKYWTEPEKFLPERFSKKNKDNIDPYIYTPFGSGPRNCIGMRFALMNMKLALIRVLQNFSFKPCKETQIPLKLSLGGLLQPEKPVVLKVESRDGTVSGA

[5] = in vivo; conditions: rat, po, 10 mg/kg

Compound | SARS-CoV-2 IC50 [1] | IC50 [2] | also measured
O=c1[nH]c(Nc2ccccc2F)nc2cc(Cl)ccc12 [Compound 9a] | no inhibitory effect | – | –
O=c1[nH]c(Nc2ccc(F)cc2)nc2cc(Cl)ccc12 [Compound 9c] | no inhibitory effect | – | –
O=c1[nH]c(Nc2ccc(F)cc2F)nc2cc(Cl)ccc12 [Compound 9d] | no activity | – | –
O=c1[nH]c(Nc2cc(Cl)cc(Cl)c2)nc2cc(Cl)ccc12 [Compound 9g, 7-chloro-2-((3,5-dichlorophenyl)amino)quinazolin-4(3H)-one] | – | < 0.25 µM | –
COc1cccc(Nc2nc3cc(Cl)ccc3c(=O)[nH]2)c1 [Compound 9h] | – | > 11 µM | –
O=c1[nH]c(NCC2CCCCC2)nc2cc(Cl)ccc12 [Compound 9n] | – | > 14 µM | –
CC(C)Nc1nc2cc(Cl)ccc2c(=O)[nH]1 [Compound 9o] | – | > 14 µM | –
CCCCNc1nc2cc(Cl)ccc2c(=O)[nH]1 [Compound 9p] | – | > 14 µM | –
O=c1[nH]c(N2CCCCC2)nc2cc(Cl)ccc12 [Compound 9q] | – | > 14 µM | –
Nc1ccc2c(=O)[nH]c(Nc3cc(F)cc(F)c3)nc2c1 [Compound 10c] | no inhibitory effects | – | –
COc1cccc2nc(Nc3cc(F)cc(F)c3)[nH]c(=O)c12 [Compound 10d] | no inhibitory effects | – | –
O=c1[nH]c(Nc2cc(F)cc(F)c2)nc2cc(O)ccc12 [Compound 10g] | no inhibitory effects | – | –
Cc1cc(C)c2nc(Nc3cc(F)cc(F)c3)[nH]c(=O)c2c1 [Compound 10h] | no inhibitory effects | – | –
Nc1ccc2c(=O)[nH]c(Nc3cc(Cl)cc(Cl)c3)nc2c1 [Compound 11c] | no inhibitory effects | – | –
COc1cccc2nc(Nc3cc(Cl)cc(Cl)c3)[nH]c(=O)c12 [Compound 11d] | no inhibitory effects | – | –
O=c1[nH]c(Nc2cc(Cl)cc(Cl)c2)nc2cccc(O)c12 [Compound 11e, 2-((3,5-dichlorophenyl)amino)-5-hydroxyquinazolin-4(3H)-one] | – | < 0.25 µM | inhibition at 10 µM [3]: > 65%; inhibition at 10 µM [4]: > 65%; Cmax [5]: 60 ng/mL
O=c1[nH]c(Nc2cc(Cl)cc(Cl)c2)nc2cc(O)ccc12 [Compound 11g] | no inhibitory effects | – | –
Cc1cc(C)c2nc(Nc3cc(Cl)cc(Cl)c3)[nH]c(=O)c2c1 [Compound 11h, 2-((3,5-Dichlorophenyl)amino)-6,8-dimethylquinazolin-4(3H)-one] | no inhibitory effects | – | –
O=c1[nH]c(Nc2cc(Cl)cc(Cl)c2)nc2cc(N3CCOCC3)ccc12 [Compound 11k] | no anti-SARS-CoV-2 activity | – | –
